Results as given in patent US10017535B2, “Amphiphilic compounds with neuroprotective properties” (USTAV ORGANICKE CHEMIE A BIOCHEMIE AV CR, v.v.i., priority 2014, dated 2018).
Counter-ions that a name gives are not always drawn. Like-named read-outs stand apart in the source and are kept apart here.

What was measured:
[1] = molecular target: T1, NR1-1a/NR2B NMDA receptor (Rattus norvegicus, UniProt P35439+Q00960); test: Patch-clamp inhibition of glutamate-evoked currents at recombinant NMDA receptors in transfected HEK293 cells; format: cell-based; conditions: for Mean % change ± SD: 1 mmol·l^−1 glutamate, −60 mV
T1 construct: expressed in transfected cells; host or cells: HEK293 cells (ATCC CRL1573)
T1 sequence (Q00960 27-1482, other chains not shown): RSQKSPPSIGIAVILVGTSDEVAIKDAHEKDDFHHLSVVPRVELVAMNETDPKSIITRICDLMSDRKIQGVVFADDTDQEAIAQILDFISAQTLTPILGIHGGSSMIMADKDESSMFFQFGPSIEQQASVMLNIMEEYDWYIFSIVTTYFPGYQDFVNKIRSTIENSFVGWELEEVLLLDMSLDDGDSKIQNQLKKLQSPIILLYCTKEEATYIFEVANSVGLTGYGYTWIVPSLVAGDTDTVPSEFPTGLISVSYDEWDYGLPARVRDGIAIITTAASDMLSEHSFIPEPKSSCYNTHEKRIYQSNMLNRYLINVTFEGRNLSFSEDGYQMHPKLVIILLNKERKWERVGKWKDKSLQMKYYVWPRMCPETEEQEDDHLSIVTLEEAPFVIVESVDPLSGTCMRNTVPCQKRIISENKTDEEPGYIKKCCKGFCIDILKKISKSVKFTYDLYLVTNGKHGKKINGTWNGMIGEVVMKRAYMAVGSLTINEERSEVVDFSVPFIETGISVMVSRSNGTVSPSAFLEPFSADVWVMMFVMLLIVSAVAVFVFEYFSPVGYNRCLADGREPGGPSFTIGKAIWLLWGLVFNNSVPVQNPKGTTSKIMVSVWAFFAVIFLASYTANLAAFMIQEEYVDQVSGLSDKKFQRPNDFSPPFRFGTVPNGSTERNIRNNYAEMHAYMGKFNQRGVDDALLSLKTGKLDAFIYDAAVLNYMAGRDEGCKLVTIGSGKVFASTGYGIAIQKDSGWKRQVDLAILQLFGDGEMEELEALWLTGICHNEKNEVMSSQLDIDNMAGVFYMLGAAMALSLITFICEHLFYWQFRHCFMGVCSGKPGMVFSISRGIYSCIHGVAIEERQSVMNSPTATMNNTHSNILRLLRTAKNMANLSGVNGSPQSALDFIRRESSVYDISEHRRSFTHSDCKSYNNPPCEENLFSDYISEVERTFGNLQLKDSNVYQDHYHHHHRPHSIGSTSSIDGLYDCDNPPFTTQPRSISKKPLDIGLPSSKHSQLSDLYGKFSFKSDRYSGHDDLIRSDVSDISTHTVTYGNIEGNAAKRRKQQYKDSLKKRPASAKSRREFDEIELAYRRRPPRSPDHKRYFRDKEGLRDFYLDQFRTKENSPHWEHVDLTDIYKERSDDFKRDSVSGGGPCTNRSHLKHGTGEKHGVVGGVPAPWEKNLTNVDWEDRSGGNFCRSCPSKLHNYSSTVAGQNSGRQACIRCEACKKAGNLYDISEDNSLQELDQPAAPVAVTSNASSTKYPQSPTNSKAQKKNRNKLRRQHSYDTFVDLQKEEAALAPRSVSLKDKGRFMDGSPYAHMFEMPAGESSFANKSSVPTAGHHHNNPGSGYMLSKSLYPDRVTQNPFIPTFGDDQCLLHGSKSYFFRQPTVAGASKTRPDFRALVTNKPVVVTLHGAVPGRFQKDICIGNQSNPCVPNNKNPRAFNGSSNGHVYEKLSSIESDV
Method: Transfected cells were identified by means of fluorescent green protein (GFP) fluorescence. Its genus was transfected together with the both receptor subunit genes.
Steroid-containing solutions were prepared from fresh solution (20 mmol·l^−1, of steroid dissolved in dimethyl sulfoxide, DMSO), which was added to the extracellular solution containing 1 mmol·l^−1 glutamic acid and 10 μmol·l^−1 of glycine. Identical concentrations of DMSO were added to all other extracellular solutions.
Current responses produced by extracellular application of glutamic acid solution (1 mmol·l^−1) were measured from the whole cell by patch-clamp technique, which is used for the study of transport of charged particles through model and also natural biological membranes. The currents were measured at membrane potential maintained at −60 mV and +60 mV.
Same amounts (0.3 μg) of cDNA coding NR1, NR2 and GFP (green fluorescent protein) (pQBI 25, Takara, Japan) were mixed with 0.9 μl of Matra-A Reagent (IBA, Göttingen, Germany) and added to confluent HEK293 cells cultivated in v 24-pit cultivating plate. After trypsination, the cells were re-suspended in Opti-MEM® I containing 1% fetal bovine serum. Subsequently, 20 mmol·l^−1 MgCl2, 1 mmol l^−1 D,L-2-amino-5-phosphonopentanoic acid, 3 mmol·l^−1 kynurenic acid was added to the mixture and cells were inoculated on the polylysine-coated glass plates having 25 mm in diameter. The following genes coding NMDA receptor subunits were used for transfection: NR1-1 a (GenBank accession No. U08261) and NR2B (GenBank accession No. M91562).
HEK293 Cultured cells were used for electrophysiological investigations with a latency of 16-40 h after transfection. Whole-cell currents were measured by patch-clamp amplifier (Axopatch 1D; Axon Instruments, Inc. Foster City, USA) after capacitance and serial resistance (<10 MΩ) compensation to 80-90%. Agonist-induced responses were filtered to 1 kHz (8-pole Bessel filter; Frequency Devices, Haverhill, USA), digitized with sampling frequency of 5 kHz and analyzed by pClamp version 9 software (Axon Instruments, USA). […] Extracellular solution (ECS) contained 160 mmol·l^−1 sodium chloride, 2.5 mmol·l^−1 potassium chloride, 10 mmol·l^−1 HEPES, 10 mmol·l^−1 glucose, 0.2 mmol·l^−1 EDTA a 0.7 mmol·l^−1 calcium chloride (pH adjusted to 7.3 by sodium hydroxide solution). Glycine was added to both testing and control solution. Moreover, bicuculline (10 μmol·l^−1) and tetrodotoxin (0.5 μmol·l^−1) was added to hippocampal cultures. Steroid-containing solutions were prepared from fresh solution (20 mmol·l^−1) of steroid dissolved in dimethyl sulfoxide (DMSO). Same concentrations of DMSO were used in all extracellular solutions. Control and experimental solutions were applied via microprocessor-controlled perfusion system with approx. rate of solution exchange in areas adjacent to cells reaching ˜10 ms.
Current responses produced by 100 μmol·l^−1 of NMDA (in the case of hipocampal neurones), or by 1 mmol·l^−1 of glutamate (on recombinant NMDA receptors) were measured at membrane potential maintained at −60 mV. […] Relative effect of steroid-induced inhibition was used for calculating IC50.

[2] = system: laboratory mice, strain CD-1; test: Open field test (locomotor activity, sedative effect); format: in vivo; conditions: for overall pathway in open field: 0.3 mg/kg, 50 minutes
Method: In the Experimental Part 1 were used adults (30-35 g) male laboratory mice, strain CD-1 from Velaz facility, Czech Republic. Mice were housed in plastic boxes with a 12-hour light cycle (lights on at 7:00 pm). Mice had free access to food and water.
Amphiphilic steroid compounds were dissolved in a solution of 3 g (2-hydroxypropyl)-β-cyclodextrin (CDX, Sigma-Aldrich) and 157 mg of citric acid ([…], Sigma-Aldrich) in 30 ml of distilled water, the pH was adjusted to 7.4 using sodium hydroxide (NaOH, Sigma-Aldrich). Thus there were prepared solutions of the four steroids for application rates of 0.1, 1, 10 and 100 mg/kg.
The efficacy of the studied compounds was compared to known NMDA antagonist is memantine (Sigma-Aldrich) at a dose of 5 mg/kg in rats, ketamine (Vétoquinol) at 10 mg/kg and dizocilpine (MK-801) (Sigma-Aldrich) at a dose of 0.3 mg/kg in mice. These three compounds were dissolved in saline (B Braun).
The substances at dose 0.1-100 mg/kg were administered before the test to mice intraperitoneally. As controls were used intact mice and mice that received CDX solution. Also, MK-801 (0.3 mg/kg) was used for comparison of effects of noncompetitive antagonist of NMDA receptors. From the experiment was evaluated overall track anywhere in the arena as an indicator of locomotor activity. In addition, it was judged a ten-minute segments track during each experiment. Based on these values, it was possible to determine the latency time of onset of action and changes in locomotor activity over time.
In this arrangement, the sedative effect of the studied compounds at the highest dose was evaluated. […] Over time was monitored locomotor activity and possible changes characterized by tremor, ataxia, restlessness, or sedation or general anesthesia (absence of response to stimuli, decreased muscle tone).

[3] = calculated from relative steroid-induced inhibition, Hill's coefficient 1.2, read-out: IC50
[4] = steroid concentration 10 μmol·l^−1
[5] = steroid concentration 3 μmol·l^−1

Row | Compound | melting point [°C] | IC50 [1, 3] [nM] | further results
1 | C=C1C[C@H]2[C@@H]3CC[C@@H]4C[C@H](OC(=O)CCC(=O)O)CC[C@]4(C)[C@H]3CC[C@]2(C)C1 | 165 to 165.7 |  | 
2 | C[C@@]12CCC[C@H]1[C@@H]1CC[C@@H]3C[C@H](OC(=O)[C@@H](N)CCCNC(=N)N)CC[C@]3(C)[C@H]1CC2.Cl.Cl | 238 to 240 |  | 
3 | C=C1CC[C@H]2[C@@H]3CC[C@@H]4C[C@H](OC(=O)CCCCC(=O)O)CC[C@]4(C)[C@H]3CC[C@]12C | 100 to 102 |  | 
4 | C[C@H]1CC[C@H]2[C@@H]3CC[C@@H]4C[C@H](OC(=O)CC(=O)O)CC[C@]4(C)[C@H]3CC[C@]12C | 158 to 161.2 |  | 
5 | C[C@H]1CC[C@H]2[C@@H]3CC[C@@H]4C[C@H](OC(=O)CCC(=O)O)CC[C@]4(C)[C@H]3CC[C@]12C | 141 to 142 |  | 
6 | C=C(C)[C@H]1CC[C@H]2[C@@H]3CC[C@@H]4C[C@H](OC(=O)CCC(=O)O)CC[C@]4(C)[C@H]3CC[C@]12C | 148 to 149.5 |  | 
7 | C[C@@]12CCC[C@H]1[C@@H]1CC[C@@H]3C[C@H](OC(=O)CCC[N+](C)(C)C)CC[C@]3(C)[C@H]1CC2 (as salt: chloride) [Compound 62, 4-(((3R,5R,8S,9S,10S,13S,14S)-10,13-Dimethylhexadecahydro-1H-cyclopenta[a]-phenanthren-3-yl)oxy)-N,N,N-trimethyl-4-oxobutan-1-ammonium chloride] | 225 to 227 |  | 
8 | C=C1CC[C@H]2[C@@H]3CC[C@@H]4C[C@H](OC(=O)C[N+](C)(C)C)CC[C@]4(C)[C@H]3CC[C@]12C (as salt: chloride) [Compound 76, 2-(((3R,5R,8R,9S,10S,13S,14S)-10,13-Dimethyl-17-methylenehexadecahydro-1H-cyclopenta[a]phenanthren-3-yl)oxy)-N,N,N-trimethyl-2-oxoethan-1-ammonium chloride] | 175 to 177 |  | 
9 | COC(=O)C1(C)CCC2C(CCC3CC(OS(=O)(=O)O)CCC32C)C1C (as salt: salt) [Compound 22, Pyridinium (2R,4aS,7S,8S,10aR)-7-(methoxycarbonyl)-4a,7,8-trimethyltetra-decahydrophenanthren-2-yl 2-sulfate] | 145 to 147 |  | 
10 | C[C@@H]1CC[C@H]2[C@@H](CC[C@@H]3C[C@H](OS(=O)(=O)O)CC[C@@]32C)C1 (as salt: salt) [Compound 35, Pyridinium (2R,4aS,4bS,7R,8aS,10aR)-4a,7-dimethyltetradecahydrophenanthren-2-yl 2-sulfate] | 147 to 149 |  | 
11 | C[C@]12CC[C@@H](OS(=O)(=O)O)C[C@H]1CC[C@@H]1[C@@H]2CC[C@]2(C)[C@@H](I)CC[C@@H]12 (as salt: salt) [Compound 93, Pyridinium (3R,5R,8R,9S,10S,13S,14S,17S)-17-iodo-10,13-dimethylhexadecahydro-1H-cyclopenta[a]phenanthren-3-yl 3-sulfate] | 118 to 120 |  | 
12 | C/C=C1/CC[C@H]2[C@@H]3CC[C@@H]4C[C@H](NC(=O)CC(=O)O)CC[C@]4(C)[C@H]3CC[C@]12C [Compound 155, 3-(((3R,5R,8R,9S,10S,13S,14S,Z)-17-Ethylidene-10,13-dimethylhexadecahydro-1H-cyclopenta[a]phenanthren-3-yl)amino)-3-oxopropanoic acid] |  |  | IC50 [1]: 8700 nM; inhibition at 10 µM ([1]; HEK293, read-out: Mean % change ± SD): 54.4 ± 5%
13 | C[C@]12N[C@H](Cc3ccccc31)c1ccccc12 [dizocilpine, reference compound] |  |  | overall pathway in open field ([2]; vs CDX control group): significant increases; overall pathway in open field ([2]; vs intact animals (p=0.0653)): tendency to increasement; time course of locomotor activity ([2]; dizocilpine 0.3 mg/kg, ten-minute sections): gradual increase; total locomotor activity ([2]; dizocilpine 0.3 mg/kg, vs two control groups): significantly higher
14 | Pyridinium (2S,4aR,4bR,8aS,10aS)-4a-methyltetradecahydrophenanthren-2-yl 2-sulfate [Compound 128] |  | 36300 | Mean % change ± SD ([1]; steroid concentration 50 μmol·l^−1): 58.0 ± 2.0%
15 | Pyridinium (3R,5R,8R,9R,10S,13S,14S)-13-methylhexadecahydro-1H-cyclopenta[a]phenanthren-3-yl 3-sulfate [Compound 126] |  | 5400 | Mean % change ± SD [1, 4]: 68.3 ± 7.4%
16 | Pyridinium (3R,5R,8R,9S,10S,13R,14S,17R)-17-((R)-sec-butyl)-10,13-dimethylhexadecahydro-1H-cyclopenta[a]phenanthren-3-yl 3-sulfate [Compound 123] |  | 11700 | Mean % change ± SD [1, 4]: 46.2 ± 2.3%
17 | Pyridinium (3R,5R,8R,9S,10S,13R,14S,17R)-17-isopropyl-10,13-dimethylhexadecahydro-1H-cyclopenta[a]phenanthren-3-yl 3-sulfate [Compound 122] |  | 2000 | Mean % change ± SD [1, 5]: 59.6 ± 18.8%
18 | Pyridinium (3R,5R,8R,9S,10S,13S,14S)-10,13-dimethyl-17-methylenehexadecahydro-1H-cyclopenta[a]phenanthren-3-yl 3-sulfate [Compound 116] |  | 1400 | Mean % change ± SD [1, 5]: 68.3 ± 4.3%
19 | Pyridinium (3R,5R,8R,9S,10S,13S,14S,17R)-10,13-dimethyl-17-(prop-1-en-2-yl)hexadecahydro-1H-cyclopenta[a]phenanthren-3-yl 3-sulfate [Compound 121] |  | 400 | Mean % change ± SD ([1]; steroid concentration 1 μmol·l^−1): 71.7 ± 8.0%
20 | Pyridinium (3R,5R,8S,9S,10S,13R,14R,17S)-10,17-dimethylhexadecahydro-1H-cyclopenta[a]phenanthren-3-yl 3-sulfate [Compound 119] |  | 700 | Mean % change ± SD [1, 5]: 81.1 ± 2.1%
21 | Pyridinium (3R,5R,8S,9S,10S,13R,14S,17S)-10,13,17-trimethylhexadecahydro-1H-cyclopenta[a]phenanthren-3-yl 3-sulfate [Compound 117] |  | 1100 | Mean % change ± SD [1, 5]: 73.1 ± 6.7%
22 | Pyridinium (3R,5R,8S,9S,10S,13R,14S,17S)-17-ethyl-10,13-dimethylhexadecahydro-1H-cyclopenta[a]phenanthren-3-yl 3-sulfate [Compound 120] |  | 500 | 
23 | Pyridinium (3R,5R,8S,9S,10S,13S,14R,17R)-10,17-dimethylhexadecahydro-1H-cyclopenta[a]phenanthren-3-yl 3-sulfate [Compound 118] |  | 1500 | Mean % change ± SD [1, 5]: 68.0 ± 7.8%
